Target: T1, Csx1 (SisCsx1, SiCsx1) (Saccharolobus islandicus, UniProt F0NE21)
T1 sequence (F0NE21 1-454): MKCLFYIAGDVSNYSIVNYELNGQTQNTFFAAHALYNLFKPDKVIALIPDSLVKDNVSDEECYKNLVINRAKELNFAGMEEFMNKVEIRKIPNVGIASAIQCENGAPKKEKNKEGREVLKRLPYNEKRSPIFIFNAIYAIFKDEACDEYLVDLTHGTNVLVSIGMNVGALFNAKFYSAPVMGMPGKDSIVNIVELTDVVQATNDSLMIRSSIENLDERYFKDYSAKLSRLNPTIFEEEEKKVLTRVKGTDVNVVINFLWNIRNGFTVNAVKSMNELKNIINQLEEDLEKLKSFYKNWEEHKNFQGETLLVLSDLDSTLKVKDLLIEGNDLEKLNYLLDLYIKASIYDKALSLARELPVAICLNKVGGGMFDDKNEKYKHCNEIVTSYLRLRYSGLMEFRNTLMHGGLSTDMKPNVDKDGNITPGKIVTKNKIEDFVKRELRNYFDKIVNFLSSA
Experiment: RNA
Type: biochemical

EC50: 7.4 nM
SMILES: Nc1ncnc2c1ncn2[C@@H]1O[C@@H]2COP(=O)(O)O[C@H]3[C@@H](O)[C@H](n4cnc5c(N)ncnc54)O[C@@H]3COP(=O)(O)O[C@H]3[C@@H](O)[C@H](n4cnc5c(N)ncnc54)O[C@@H]3COP(=O)(O)O[C@H]3[C@@H](O)[C@H](n4cnc5c(N)ncnc54)O[C@@H]3COP(=O)(O)O[C@H]2[C@H]1O [c-A4]

— publication PMC6212834 (Nucleic Acids Research, 2018)
